Source: patent EP3884948A1, “CATHEPSIN INHIBITORS AND USES THEREOF” (Ecole Polytechnique Fédérale de Lausanne (EPFL), priority 2020, dated 2021)

Experiments:
[1] = tested on: human lymphoma cancer cell lines (Karpas-422 and DoHH2); assay: Cell viability assay in lymphoma cell lines; format: cell-based; conditions: for toxicity / cell survival: Karpas-422 and DoHH2, 48h or 72h, increasing doses up to 50 µM
Description: Two human lymphoma cell lines DoHH2 and Karpas-422 and one murine lymphoma cell line A20 were treated with increasing concentration of compounds (1), (5) and (9). 24 hours before treatment cells were diluted at 2^∗10^5 cells/ml. Cell number was measured at 48h and 72h after treatment using automatic cell counting of Millipore Guava. The values were normalized to cells treated with the same dose of vehicle (DMSO).
Next, the toxicity of these inhibitors on two human lymphoma cancer cell lines (Karpas-422 and DoHH2). The cells were treated with the small molecules for 48h or 72h at increasing doses (50 µM, 10 µM, µM, 0.1 µM). […] Conversely, compound (9) progressively decreases cell proliferation of up to 50% after 72 hours of exposure to the 0. 1 µM of the compound or less than 30% in cells treated with 10 or 50 µM.

cathepsin B (CTSB) = cathepsin B (CTSB) (Homo sapiens, UniProt P07858); assay: FRET specificity assay for cathepsin B; format: biochemical; conditions: for inhibition of Cathepsin B activity (MCA fluorescent emission): CTSB, peptide of SEQ ID NO: 5 as substrate, Fig. 4
Description: (§1) First, specific conditions to activate the enzymes were used as follows: CTSB was diluted in active buffer (MES 25 mM, DTT 5 mM, pH 5) at 10 µg/ml, incubated at 37°C for 2h and then diluted to 1 µg/ml in assay buffer (MES 25 mM, pH 5) for the FRET assay. CTSH was diluted in a specific active buffer (MES 50 mM, CaCl2 10 mM, NaCl 150 mM, pH 6.5) 200 µg/ml. In addition, as co-stimulatory activator thermolysin diluted at 100 µg/ml in active buffer was used mixed with equal volume of the diluted CTSH. The solution was incubated for 1h room temperature and then we added 2 mM Phosporamidon diluted in assay buffer (MES 50 mM, pH 6,5) and incubate the mix for 10 minutes at room temperature. Lastly, an equal volume of assay buffer containing 20 mM DTT was added and the mixture incubated 5 minutes at room temperature. For the FRET assay, diluted both CTSH, and CTSB at 1 µg/ml were used in their specific assay buffer and incubated with a specific substrate. As substrate, the following peptides were used: peptide of SEQ ID NO: 5 (KPPKPVSD) in CTSB FRET assays and SEQ ID NO: 1 (KLRMKLPKP) in CTSH FRET assays and tested increasing doses of candidate inhibitors (20 µM, 10 µM, 1 µM, 0.1 µM). Fluorescence emission was measured with SpectraMax iD3 (Molecular Devices) in kinetic mode over three hours (excitation: 330 nm, emission: 390 nm).

cathepsin H (CTSH) = cathepsin H (CTSH) (Homo sapiens, UniProt P09668); assay: FRET specificity assay for cathepsin H; format: biochemical; conditions: peptide of SEQ ID NO: 2 as substrate, Fig. 5
cathepsin H (CTSH), sequence (P09668 116-335 limits assumed, other chains not shown): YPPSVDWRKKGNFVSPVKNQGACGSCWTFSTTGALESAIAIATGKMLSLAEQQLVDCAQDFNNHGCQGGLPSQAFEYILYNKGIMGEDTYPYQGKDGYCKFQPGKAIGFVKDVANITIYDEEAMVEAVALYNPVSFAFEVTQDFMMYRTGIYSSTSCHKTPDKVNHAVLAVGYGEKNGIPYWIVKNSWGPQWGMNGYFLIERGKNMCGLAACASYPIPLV
Description: as §1, with “As substrate, the following peptides were used: peptide of SEQ ID NO: 5 (KPPKPVSD) in CTSB FRET assays and SEQ ID NO: 1 (KLRMKLPKP) in CTSH FRET assays and tested increasing doses of candidate inhibitors (20 µM, 10 µM, 1 µM, 0.1 µM).” left out

cathepsin S (CTSS) = target: T1, cathepsin S (CTSS) (Homo sapiens, UniProt P25774); assay: FRET assay for cathepsin S (inhibitor screen and substrate cleavage); format: biochemical; conditions: for inhibition of cathepsin S activity (MCA fluorescent emission): CTSS, peptide of SEQ ID NO: 1 as substrate, Fig. 3; for cleavage by CTSS as substrate: FRET, CTSS-His-WT, SEQ ID NO: 1 compared with SEQ ID NO: 4
T1 construct: made in house; host or cells: HEK293
T1 sequence (P25774 115-331): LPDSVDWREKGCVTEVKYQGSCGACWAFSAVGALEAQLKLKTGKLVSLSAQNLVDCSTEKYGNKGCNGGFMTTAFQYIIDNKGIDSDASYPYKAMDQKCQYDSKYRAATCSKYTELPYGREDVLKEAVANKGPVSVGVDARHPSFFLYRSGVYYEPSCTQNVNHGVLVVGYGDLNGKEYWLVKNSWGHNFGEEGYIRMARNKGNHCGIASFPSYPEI
Description: CTSS-His WT and Y132D were diluted to 10 µg/mL in Assay buffer (50 mM NaOAc, 5 mM DTT, 250 mM NaCl), at pH 4.5 and incubated at 37°C for 90 minutes to allow auto-activation. The proteins were then diluted to 0.5 ng/µl in Assay buffer and plated in 96-well plates (50 µl/well). The peptides of SEQ ID NO: 1, SEQ ID NO: 2, SEQ ID NO: 3, SEQ ID NO: 4 and SEQ ID NO: 5 were synthesized and diluted to 20 µM in a buffer (50 mM NaOAc, 5 mM DTT, 250 mM NaCl) then added to the activated CTSS (50 µl/well). 50 µM E64 (Selleckchem, cat #S7379) was added to CTSS prior to the substrate as positive control. A commercially available CTSS purified protein (R&D systems, cat #1183-CY-010) was in addition used as control. MCA emission was measured with SpectraMax iD3 (Molecular Devices) in kinetic mode for 20 minutes (excitation: 330 nm, emission: 390 nm).
The FRET assay was miniaturized to performed the screen in […] and each molecule was tested in duplicates. 10 µg/ml of CTSS was incubated in the activation buffer for 105 minutes to allow a complete activation of the enzyme. Then, the enzyme was diluted at 0.5 µg/ml and dispensed in […] pre-loaded with the small molecule candidates using an automatic dispenser (Biotek Dispenser multiflo). The plates were incubated for 10 minutes at room temperature and then 20 µM of substrate was added in each well and acquired the fluorescence signal (excitation: 330 nm, emission: 390 nm) after 90 minutes. For each plate, were included untreated wells as negative control and E64 was used (150 µM) as positive control. To assess the quality of the screen, a Z'-score for each plate was calculated and all plates had Z' score > 0.6. To identify possible hits, the average value and standard deviation of the positive and negative control were calculated. The upper and lower limit values for each plate were calculated considering plus/minus three times the standard deviation to the average and only compounds that in both independent duplicate scored below the positive control threshold were retained.

[2] = tested on: A20-HA lymphoma cells co-incubated with CD8+ T-cells isolated from CL4-HA transgenic animals; assay: Co-culture assay of A20-HA lymphoma cells with CD8+ T-cells; format: cell-based, mouse; conditions: A20-HA cells pre-treated with 30uM inhibitor; for over-activation of CD8+ T-cells: 72h co-incubation
Description: Proteins were extracted using a buffer containing 20 mM Tris-HCl (pH 7.5) 150 mM NaCl, 1 mM Na2EDTA 1 mM EGTA 1% NP-40 1% sodium deoxycholate 2.5 mM sodium pyrophosphate 1 mM β-glycerophosphate 1 mM Na3VO4 1 µg/ml leupeptin) supplemented with protease (Sigma Aldrich, cat #11836153001) and phosphatases (Roche, cat #04906837001) inhibitors and quantified with the Bradford reagent (Bio-Rad, cat #5000006). 20-30 µg of proteins were resolved on SDS-PAGE and transferred at 20V for 20-30 minutes to Immobilon-P-membranes (Millipore). After blocking in 5% milk (Applichem, cat #A0830) in PBS-0.1%Tween (Fisher scientific, cat #BP337), membranes were incubated overnight in 5% milk in PBS-Tween with the following primary antibodies: goat anti-human Cathepsin S (RD, cat #AF1183, 1:2000), Cathepsin B (D1C7Y) XP® Rabbit (Cell signaling mAb #31718), rabbit anti-mouse Cathepsin S (Sino Biological, cat #50769-R054, 1:1000), mouse anti-human CD74 (PIN.1, StressMarq, cat #SMC-116, diluted 1:1000), rat-anti-mouse CD74 (clone ln-1, BD biosciences, cat #555317, 1:1000), rabbit anti-his-Tag (Cell Signaling, cat #D3I10, dilute 1:1000), mouse anti-human alpha-Tubulin (clone B-5-1-2, Sigma Aldrich, cat#T6072, diluted 1:10000), anti-beta actin (clone 8H10D10, ThermoFisher Scientific, cat# MA5-15452, 1:1000).
At the end of the B-cell/T cell co-culture, […] and analyzed for the proliferation of T cells stained with an Pe-Cy7 anti-mouse CD8a antibody (Clone 53-6.7, BD Biosciences, San Jose, CA, USA, cat #552877) or PercP efluor 710 rat anti-CD4 antibody (bd bioscience, cat#564379) by quantifying CellTrace violet proliferation peaks using flow cytometry. In parallel, B cell concentration was measured using cell-counting flow-cytometer (Guava easyCyte). A20-HA lymphoma cells wild-type, Ctss knock-out, B2m knock-out, and Pdl1 knock-out expressing HA as antigen were pre-treated with 30uM E64 (Apexbio Technology LLC (cat #A2576), 30uM Z-FL-COCHO (Anawa trading SA, cat #A13502-5), 30uM LY300328 (Lucerna Chem AG, cat # MCE-HY-15533) or-directly co-incubated for 72h with CellTrace violet stained CD8+ T-cells isolated from CL4-HA transgenic animals. At the end of the B-cell/T cell co-culture, cells were collected, stained with PE-Cy7 anti-mouse CD8a antibody (Clone 53-6.7, BD Biosciences, San Jose, CA, USA cat #552877) and analyzed for the proliferation of T cells stained by quantifying CellTrace violet proliferation peaks using flow cytometry. In parallel, B cell concentration was measured using cell-counting flow-cytometer (Guava easyCyte).

Compound: Cc1nc(N2CCCC(C(=O)NCc3ccco3)C2)c2c(C)c(C)oc2n1 (stereo not shown) [compound (9), N-(2-furanylmethyl)-1-(2,5,6-trimethylfuro[2,3-d]pyrimidin-4-yl)-3-piperidinecarboxamide]
- inhibition at 0.1 µM ([1]; Homo sapiens, after 72 hours of exposure to 0.1 µM, read-out: decrease of cell proliferation): ≤ 50%

Compound: Cc1oc2ncnc(N3CCCC(C(=O)NCCc4ccco4)C3)c2c1C (stereo not shown) [compound (11), 1-(5,6-dimethylfuro[2,3-d]pyrimidin-4-yl)-N-[2-(2-furanyl)ethyl]-3-piperidinecarboxamide]
- inhibition of Cathepsin B activity (MCA fluorescent emission) (cathepsin B (CTSB)): not Cathepsin B
- inhibition of Cathepsin H activity (MCA fluorescent emission) (cathepsin H (CTSH)): not Cathepsin H
- inhibition of cathepsin S activity (MCA fluorescent emission) (cathepsin S (CTSS)): able to inhibit cathepsin S activity

Compound: O=c1ccc(-c2ccco2)nn1CCNS(=O)(=O)c1ccccc1F [compound (1), 2-fluoro-N-[2-[3-(2-furanyl)-6-oxo-1(6H)-pyridazinyl]ethyl]-benzenesulfonamide]
- inhibition of Cathepsin B activity (MCA fluorescent emission) (cathepsin B (CTSB)): not Cathepsin B
- toxicity / cell survival [1]: well tolerated
- inhibition of Cathepsin H activity (MCA fluorescent emission) (cathepsin H (CTSH)): not Cathepsin H
- inhibition of cathepsin S activity (MCA fluorescent emission) (cathepsin S (CTSS)): able to inhibit cathepsin S activity

Compound: KPPKPVSK [SEQ ID NO: 4]
- substrate for Cathepsin B (cathepsin B (CTSB)): good substrate for Cathepsin B

Compound: KLRMKLPKP [SEQ ID NO: 1]
- cleavage by CTSS as substrate (cathepsin S (CTSS)): cleaved more efficiently

Compound: Cc1noc(C)c1CC(=O)NCCn1nc(-c2ccco2)ccc1=O [compound (5), N-[2-[3-(2-furanyl)-6-oxo-1(6H)-pyridazinyl]ethyl]-3,5-dimethyl-4-isoxazoleacetamide]
- inhibition of Cathepsin B activity (MCA fluorescent emission) (cathepsin B (CTSB)): not Cathepsin B
- toxicity / cell survival [1]: well tolerated
- inhibition of Cathepsin H activity (MCA fluorescent emission) (cathepsin H (CTSH)): not Cathepsin H
- inhibition of cathepsin S activity (MCA fluorescent emission) (cathepsin S (CTSS)): able to inhibit cathepsin S activity

Compound: KLRMKLPKD [SEQ ID NO: 2]
- cleavage by CTSS as substrate (cathepsin S (CTSS)): improved cathepsin S substrate

Compound: CC(C)C[C@H](NC(=O)[C@H]1O[C@@H]1C(=O)O)C(=O)NCCCCNC(=N)N [E64]
- accumulation of the small fragment of CD74, p10 [2]: observed
- over-activation of CD8+ T-cells [2]: no over-activation

Compound: Z-FL-COCHO
- accumulation of the small fragment of CD74, p10 [2]: observed
- over-activation of CD8+ T-cells [2]: no over-activation
